ChEMBL document CHEMBL5360529, “Pyrimidine derivatives with antitubercular activity” (Eur J Med Chem, 2023)

Molecular target: T1, Thymidylate kinase (Mycobacterium tuberculosis, UniProt P9WKE1)
T1 sequence (P9WKE1 whole entry): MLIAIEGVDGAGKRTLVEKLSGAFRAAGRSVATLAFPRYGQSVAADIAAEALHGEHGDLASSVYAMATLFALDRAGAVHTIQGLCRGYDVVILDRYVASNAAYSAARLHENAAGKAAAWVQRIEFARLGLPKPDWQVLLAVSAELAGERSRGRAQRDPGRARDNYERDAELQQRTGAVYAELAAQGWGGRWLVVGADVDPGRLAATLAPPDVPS
Test: Inhibition of recombinant Mycobacterium tuberculosis TMPK overexpressed in Escherichia coli assessed as inhibition constant by spectrophotometric assay

`Cc1cn(C/C=C\CN2c3cccc4cccc(c34)S2(=O)=O)c(=O)[nH]c1=O` was tested, and the Ki was 270 nM.
